According to the CheMixHub viscosity set:

Assay: xn = mol fraction of the nth substance listed

O=[N+]([O-])c1ccccc1 + CS(C)=O
viscosity [mPa·s], 101 kPa
Conditions | x2 = 0.1 | x2 = 0.2 | x2 = 0.3 | x2 = 0.4 | x2 = 0.5 | x2 = 0.6 | x2 = 0.7 | x2 = 0.8 | x2 = 0.9
298.15 K | 1.851 | 1.877 | 1.903 | 1.927 | 1.946 | 1.962 | 1.975 | 1.985 | 1.993
308.15 K | 1.569 | 1.586 | 1.605 | 1.623 | 1.639 | 1.653 | 1.662 | 1.665 | 1.664
318.15 K | 1.333 | 1.349 | 1.353 | 1.377 | 1.388 | 1.396 | 1.402 | 1.403 | 1.4

CCCCCCCC + CCCCO
298.15 K, 101.33 kPa
Conditions | viscosity [mPa·s]
x1 = 0.0832 | 2.013
x1 = 0.1173 | 1.84
x1 = 0.1519 | 1.681
x1 = 0.2113 | 1.443
x1 = 0.304 | 1.152
x1 = 0.3599 | 1.017
x1 = 0.4942 | 0.788
x1 = 0.6053 | 0.676
x1 = 0.7044 | 0.615
x1 = 0.8459 | 0.555

CC(C)CCl + CC(C)CO
viscosity [mPa·s], 101.33 kPa
Conditions | x1 = 0.1154 | x1 = 0.2046 | x1 = 0.3086 | x1 = 0.4017 | x1 = 0.4943 | x1 = 0.6102 | x1 = 0.7057 | x1 = 0.8002 | x1 = 0.8978
298.15 K | 2.364 | 1.728 | 1.287 | 1.019 | 0.8243 | 0.6718 | 0.5775 | 0.5104 | 0.4593
313.15 K | 1.56 | 1.191 | 0.9221 | 0.7582 | 0.6325 | 0.5324 | 0.4679 | 0.4215 | 0.3866

CCCCCCCCCCCCCC + CCCCCCCCCCCCCCCC
293.15 K, 101.33 kPa
Conditions | viscosity [mPa·s]
x1 = 0.276 | 3.067
x1 = 0.533 | 2.789
x1 = 0.773 | 2.529

C=C(C)C(=O)O + O=C1CCCCC1
viscosity [mPa·s], 101 kPa
Conditions | x2 = 0.1 | x2 = 0.2 | x2 = 0.3 | x2 = 0.4 | x2 = 0.5 | x2 = 0.5999 | x2 = 0.7 | x2 = 0.8 | x2 = 0.9
298.15 K | 1.369 | 1.528 | 1.659 | 1.809 | 1.901 | 1.949 | 1.999 | 2.045 | 2.037
308.15 K | 1.159 | 1.281 | 1.389 | 1.508 | 1.583 | 1.616 | 1.651 | 1.683 | 1.684
318.15 K | 0.999 | 1.101 | 1.183 | 1.275 | 1.33 | 1.359 | 1.395 | 1.424 | 1.422

CCCCCO + CCCCCCC
Conditions | viscosity [mPa·s]
293.15 K, 100 kPa, x2 = 0.0249 | 3.71
293.15 K, 100 kPa, x2 = 0.081 | 3.099
293.15 K, 100 kPa, x2 = 0.1471 | 2.521
293.15 K, 100 kPa, x2 = 0.259 | 1.798
293.15 K, 100 kPa, x2 = 0.3365 | 1.429
293.15 K, 100 kPa, x2 = 0.3987 | 1.196
293.15 K, 100 kPa, x2 = 0.4734 | 0.975
293.15 K, 100 kPa, x2 = 0.5627 | 0.776
293.15 K, 100 kPa, x2 = 0.6484 | 0.641
293.15 K, 100 kPa, x2 = 0.734 | 0.544
293.15 K, 100 kPa, x2 = 0.8184 | 0.474
293.15 K, 100 kPa, x2 = 0.9043 | 0.42
293.2 K, 101 kPa, x1 = 0.3 | 0.655
293.8 K, 101 kPa, x1 = 0.5 | 0.924
293.9 K, 101 kPa, x1 = 0.051 | 0.491
298.15 K, 100 kPa, x2 = 0.0249 | 3.218
298.15 K, 100 kPa, x2 = 0.081 | 2.702
298.15 K, 100 kPa, x2 = 0.1471 | 2.211
298.15 K, 100 kPa, x2 = 0.259 | 1.591
298.15 K, 100 kPa, x2 = 0.3365 | 1.277
298.15 K, 100 kPa, x2 = 0.3987 | 1.076
298.15 K, 100 kPa, x2 = 0.4734 | 0.884
298.15 K, 100 kPa, x2 = 0.5627 | 0.712
298.15 K, 100 kPa, x2 = 0.6484 | 0.594
298.15 K, 100 kPa, x2 = 0.734 | 0.507
298.15 K, 100 kPa, x2 = 0.8184 | 0.445
298.15 K, 100 kPa, x2 = 0.9043 | 0.396
298.15 K, 101.33 kPa, x1 = 0.0652 | 0.4117
298.15 K, 101.33 kPa, x1 = 0.1304 | 0.4449
298.15 K, 101.33 kPa, x1 = 0.2489 | 0.5244
298.15 K, 101.33 kPa, x1 = 0.3595 | 0.6427
298.15 K, 101.33 kPa, x1 = 0.4654 | 0.8116
298.15 K, 101.33 kPa, x1 = 0.5682 | 1.041
298.15 K, 101.33 kPa, x1 = 0.6617 | 1.338
298.15 K, 101.33 kPa, x1 = 0.7552 | 1.713
298.15 K, 101.33 kPa, x1 = 0.8805 | 2.418
298.15 K, 101.33 kPa, x1 = 0.9606 | 3.057
303.15 K, 100 kPa, x2 = 0.0249 | 2.804
303.15 K, 100 kPa, x2 = 0.081 | 2.365
303.15 K, 100 kPa, x2 = 0.1471 | 1.945
303.15 K, 100 kPa, x2 = 0.259 | 1.415
303.15 K, 100 kPa, x2 = 0.3365 | 1.145
303.15 K, 100 kPa, x2 = 0.3987 | 0.971
303.15 K, 100 kPa, x2 = 0.4734 | 0.805
303.15 K, 100 kPa, x2 = 0.5627 | 0.655
303.15 K, 100 kPa, x2 = 0.6484 | 0.551
303.15 K, 100 kPa, x2 = 0.734 | 0.474
303.15 K, 100 kPa, x2 = 0.8184 | 0.417
303.15 K, 100 kPa, x2 = 0.9043 | 0.371
308.15 K, 100 kPa, x2 = 0.0249 | 2.453
308.15 K, 100 kPa, x2 = 0.081 | 2.08
308.15 K, 100 kPa, x2 = 0.1471 | 1.72
308.15 K, 100 kPa, x2 = 0.259 | 1.262
308.15 K, 100 kPa, x2 = 0.3365 | 1.03
308.15 K, 100 kPa, x2 = 0.3987 | 0.879
308.15 K, 100 kPa, x2 = 0.4734 | 0.739
308.15 K, 100 kPa, x2 = 0.5627 | 0.604
308.15 K, 100 kPa, x2 = 0.6484 | 0.515
308.15 K, 100 kPa, x2 = 0.734 | 0.438
308.15 K, 100 kPa, x2 = 0.8184 | 0.39
308.15 K, 100 kPa, x2 = 0.9043 | 0.349
308.15 K, 101.33 kPa, x1 = 0.0652 | 0.368
308.15 K, 101.33 kPa, x1 = 0.1304 | 0.3956
308.15 K, 101.33 kPa, x1 = 0.2489 | 0.4627
308.15 K, 101.33 kPa, x1 = 0.3595 | 0.5523
308.15 K, 101.33 kPa, x1 = 0.4654 | 0.6821
308.15 K, 101.33 kPa, x1 = 0.5682 | 0.841
308.15 K, 101.33 kPa, x1 = 0.6617 | 1.062
308.15 K, 101.33 kPa, x1 = 0.7552 | 1.353
308.15 K, 101.33 kPa, x1 = 0.8805 | 1.931
308.15 K, 101.33 kPa, x1 = 0.9606 | 2.382
313.15 K, 100 kPa, x2 = 0.0249 | 2.155
313.15 K, 100 kPa, x2 = 0.081 | 1.836
313.15 K, 100 kPa, x2 = 0.1471 | 1.526
313.15 K, 100 kPa, x2 = 0.259 | 1.132
313.15 K, 100 kPa, x2 = 0.3365 | 0.936
313.15 K, 100 kPa, x2 = 0.3987 | 0.798
313.15 K, 100 kPa, x2 = 0.4734 | 0.674
313.15 K, 100 kPa, x2 = 0.5627 | 0.557
313.15 K, 100 kPa, x2 = 0.6484 | 0.485
313.15 K, 100 kPa, x2 = 0.734 | 0.414
313.15 K, 100 kPa, x2 = 0.8184 | 0.366
313.15 K, 100 kPa, x2 = 0.9043 | 0.327

O=[N+]([O-])c1ccccc1 + CCOC(C)=O
viscosity [mPa·s], 101 kPa
Conditions | 298.15 K | 308.15 K
x1 = 0.1753 | 0.582 | –
x1 = 0.4777 | 0.889 | –
x1 = 0.6887 | 1.204 | –
x2 = 0.0466 | 1.71 | 1.482
x2 = 0.1486 | 1.535 | 1.346
x2 = 0.2512 | 1.364 | 1.208
x2 = 0.3117 | 1.204 | –
x2 = 0.3496 | 1.206 | 1.077
x2 = 0.4483 | 1.057 | 0.95
x2 = 0.4935 | 0.992 | 0.893
x2 = 0.5223 | 0.889 | –
x2 = 0.5538 | 0.909 | 0.821
x2 = 0.6497 | 0.785 | 0.711
x2 = 0.7513 | 0.666 | 0.604
x2 = 0.8247 | 0.582 | –
x2 = 0.8488 | 0.564 | 0.512
x2 = 0.9411 | 0.478 | 0.433

O=[N+]([O-])c1ccccc1 + COCCO
Conditions | viscosity [mPa·s]
298.15 K, 101 kPa, x1 = 0.0511 | 1.561
298.15 K, 101 kPa, x1 = 0.101 | 1.58
298.15 K, 101 kPa, x1 = 0.2028 | 1.624
298.15 K, 101 kPa, x1 = 0.3038 | 1.673
298.15 K, 101 kPa, x1 = 0.4004 | 1.72
298.15 K, 101 kPa, x1 = 0.4502 | 1.743
298.15 K, 101 kPa, x1 = 0.5003 | 1.764
298.15 K, 101 kPa, x1 = 0.5524 | 1.785
298.15 K, 101 kPa, x1 = 0.6001 | 1.801
298.15 K, 101 kPa, x1 = 0.6981 | 1.829
298.15 K, 101 kPa, x1 = 0.7856 | 1.847
298.15 K, 101 kPa, x1 = 0.8931 | 1.85
298.15 K, 101 kPa, x1 = 0.9407 | 1.839
303.15 K, 101.33 kPa, x2 = 0.132 | 1.553
303.15 K, 101.33 kPa, x2 = 0.2148 | 1.514
303.15 K, 101.33 kPa, x2 = 0.2725 | 1.49
303.15 K, 101.33 kPa, x2 = 0.3929 | 1.453
303.15 K, 101.33 kPa, x2 = 0.5243 | 1.428
303.15 K, 101.33 kPa, x2 = 0.5584 | 1.425
303.15 K, 101.33 kPa, x2 = 0.7423 | 1.409
303.15 K, 101.33 kPa, x2 = 0.8512 | 1.397
303.15 K, 101.33 kPa, x2 = 0.9147 | 1.391
